The data set is described as follows: passive permeability, PAMPA, ADME assay (AID 1508612). The conditions noted are these: pH 7.4, 30.0 min, 50.0 µM.

`COc1cc(C(=O)N2CCN(c3cc(Cl)ccc3Cl)CC2)cc(OC)c1OC`: the Papp is above 1000 ×10⁻⁶ cm/s. To `CCCCN(CC)CCCNC(=O)c1ccc2c(c1)N(Cc1ccc(C)cc1)C(=O)c1ccccc1S2` belongs 827 ×10⁻⁶ cm/s; to `Cc1cccc(S(=O)(=O)c2cn(Cc3ccccc3)c3cc(N4CCCC(C)C4)c(F)cc3c2=O)c1` (stereo unspecified), above 1000 ×10⁻⁶ cm/s.

Consider `C#CC1(O)CCC2C3CCC4=C/C(=N/OCC(=O)NCC(=O)NC(C(=O)O)C(C)C)CC[C@]4(C)C3CC[C@@]21C` (stereo partly specified), for which the Papp is 4.52 ×10⁻⁶ cm/s.

Take `CN1CCCN(C(c2ccccc2)c2ccc(Cl)cc2)CC1` (stereo unspecified): the Papp is 652 ×10⁻⁶ cm/s. To `COc1ccccc1-c1nc(NCc2ccc(-c3cccnc3)cc2)c2ccccc2n1` belongs 980 ×10⁻⁶ cm/s; to `Cn1nnnc1Sc1ncnc2scc(-c3ccc(F)cc3)c12`, 911 ×10⁻⁶ cm/s; to `Cn1c(CN2CCCCC2)nc2cc(NC(=O)c3cccc(Br)c3)ccc21`, above 1000 ×10⁻⁶ cm/s. In turn, `COc1ccc2cc1Oc1ccc(cc1)C[C@@H]1c3c(cc(OC)c4c3Oc3cc5c(cc3O4)CCN[C@H]5C2)CCN1C` came in with a Papp of 217 ×10⁻⁶ cm/s. Regarding `CC(C)(C)c1ccc(C(=O)Nc2cn3cc(-n4ccnc4)ccc3n2)cc1`, the Papp amounted to 952 ×10⁻⁶ cm/s.

The molecule `N#Cc1ccccc1S(=O)(=O)Nc1cnccc1C(=O)Nc1nc(-c2ccccc2)cs1` displayed a Papp of 61.8 ×10⁻⁶ cm/s. `CN1CCN(c2ccc(Nc3c4ccccc4nc4ccccc34)cc2)CC1`: the Papp is above 1000 ×10⁻⁶ cm/s.

With `O=C1Nc2c(Cl)cccc2/C1=C\c1cc(Cl)c(O)c(Cl)c1`, the Papp is 58.8 ×10⁻⁶ cm/s. Turning to `Cc1nn2c(c1-c1ccccc1OCc1ccccc1)N(C(=O)Cc1ccc3c(c1)OCO3)CCC2`, the Papp is above 1000 ×10⁻⁶ cm/s. Turning to `O=[S+]([O-])(Nc1ccccc1)c1ccc(NCc2ccc(Cl)cc2O)cc1`, the Papp came to 524 ×10⁻⁶ cm/s.

As to `Nc1nc2c(s1)C(c1c(Cl)cccc1Cl)CC(=O)N2` (stereo unspecified), the Papp turned out to be 5.54 ×10⁻⁶ cm/s. Molecule `O=C(c1ccc2c(c1)OCO2)N1CCC(Cc2nc(-c3cnccn3)no2)CC1` had a Papp of 71.9 ×10⁻⁶ cm/s.

With `S=C(NCCCc1cnc[nH]1)NCCCN(Cc1ccc(Cl)c(Cl)c1)c1ccc(Br)cn1`, the Papp worked out at 14 ×10⁻⁶ cm/s. Next, `COc1cccc(Nc2nc(-c3ccncc3)nc3ccccc23)c1`: above 1000 ×10⁻⁶ cm/s.

Turning to `COc1ccc(S(=O)(=O)N2CCOCC2)cc1NC(=O)c1cccc(-n2cccc2)c1`, the Papp was below 1 ×10⁻⁶ cm/s. The molecule `Cc1cnc(NC(=O)c2ccc(-c3cccc([N+](=O)[O-])c3)o2)s1` showed a Papp of 47.9 ×10⁻⁶ cm/s. Next, `O=C(NCC1CCOCC1)C1CC(=O)N(c2n[nH]c3cc(Br)ccc23)C1` (stereo unspecified): 16.1 ×10⁻⁶ cm/s; `Clc1cccc(Nc2nc(-c3ccncc3)nc3ccccc23)c1`: 250 ×10⁻⁶ cm/s; `COc1ccc2c(c1)N(C[C@H](C)CN(C)C)c1ccccc1S2`: 902 ×10⁻⁶ cm/s. `CCOc1cc(CCNC(=O)c2cc3sccc3n2Cc2ccccc2)cc(F)c1OCC` showed a Papp below 1 ×10⁻⁶ cm/s. Take `Cc1nn2c(c1-c1ccccc1-c1ccccc1)N(Cc1ccc(C(=O)O)s1)CCC2`: the Papp is 109 ×10⁻⁶ cm/s. Turning to `Nc1nc2c(s1)C(c1cccc(F)c1F)CC(=O)N2` (stereo unspecified), the Papp stood at 9.86 ×10⁻⁶ cm/s. Next, `NC(=O)Nc1cc(-c2ccc(CN3CCOCC3)cc2)sc1C(N)=O`: 40.3 ×10⁻⁶ cm/s; `Cc1ccc2oc3c(c(=O)c2c1)C(c1ccc(O)cc1)N(CCCN(C)C)C3=O` (stereo unspecified): below 1 ×10⁻⁶ cm/s. `O=S(=O)(Nc1nc2n(n1)C(c1ccccc1)C=C(c1ccc(Cl)cc1)N2)c1ccccc1` (stereo unspecified) displayed a Papp of 9.09 ×10⁻⁶ cm/s.

`Clc1ccc(-c2noc3ncnc(N4CCCCC4)c23)cc1`: the Papp is above 1000 ×10⁻⁶ cm/s. `Cc1nn2c(c1-c1ccccc1-c1ccccc1)N(CC1CC1)CCC2`: the Papp is above 1000 ×10⁻⁶ cm/s. For `CCOc1ccc(CCNC(=O)c2cc3ccccc3n2Cc2cccc(C)n2)cc1OCC`, the Papp was above 1000 ×10⁻⁶ cm/s. In turn, `O=C(NC1CCCN(c2cc(-c3ccc(F)cc3)[nH]n2)C1)c1ccc2ncccc2c1` (stereo unspecified) came in with a Papp of 61.8 ×10⁻⁶ cm/s.

In the case of `c1cc(-c2cc(-c3ccncc3)c3cncn3c2)c2[nH]ccc2c1`, the Papp turned out to be 157 ×10⁻⁶ cm/s. To `CCOC(=O)NNc1ccc(N(CC)CC(C)O)nn1` (stereo unspecified) belongs 10.7 ×10⁻⁶ cm/s; to `CCC(CC)c1cc([C@H]2CN3CC[C@H]2C[C@@H]3CNC(=O)Cc2cccs2)nc(-c2ccncc2)n1`, 448 ×10⁻⁶ cm/s.

Molecule `COc1cccc(CN(C)c2ccc([S+](=O)([O-])Nc3nccs3)cc2)c1O` came in with a Papp of 868 ×10⁻⁶ cm/s. Molecule `CC(=O)Nc1ccc(C(=O)Nc2ccccc2N)cc1` showed a Papp below 1 ×10⁻⁶ cm/s. Next, `Cc1ccc(S(=O)(=O)Nc2cnccc2C(=O)Nc2nc(-c3cc4ccccc4o3)cs2)cc1`: 2.48 ×10⁻⁶ cm/s.

`O=C(Nc1nc(-c2ccccc2)cs1)c1ccncc1NS(=O)(=O)c1ccc(F)cc1` registered a Papp of 748 ×10⁻⁶ cm/s. The molecule `c1cc(OCCN2CCCCC2)cc(-c2n[nH]c3ccc(-c4ncn[nH]4)cc23)c1` gave a Papp below 1 ×10⁻⁶ cm/s.

For `Cc1cc(SCc2sc(-c3ccc(C(F)(F)F)c(F)c3)nc2C)ccc1OCC(=O)O`, the Papp turned out to be 417 ×10⁻⁶ cm/s. `CCOc1cc(CNc2ccc(O)cc2)ccc1OCc1ccc(Cl)cc1` had a Papp below 1 ×10⁻⁶ cm/s. `CCOC(=O)N1CCN(C(=O)Cn2sc3nc(C)cc(C)c3c2=O)CC1` registered a Papp of 47.1 ×10⁻⁶ cm/s. Turning to `Cc1ccc2oc(NC3=NC(c4[nH]ncc4Cl)C4=C(CCCC4=O)N3)nc2c1` (stereo unspecified), the apparent permeability (Papp) was 1000 ×10⁻⁶ cm/s.

`Cc1ccc(S(=O)(=O)Nc2cnccc2C(=O)Nc2nc(-c3ccc(C)c(C)c3)cs2)cc1` returned a Papp above 1000 ×10⁻⁶ cm/s. Next, `CC(=O)c1c(C)[nH]c(C(=O)Nc2cccc([S+](=O)([O-])Nc3ccncc3)c2)c1C`: 1.51 ×10⁻⁶ cm/s; `Cn1ccc2c(C(=O)NCc3cccnc3)nc(-c3ccccc3C#N)cc21`: 732 ×10⁻⁶ cm/s. Turning to `NC(=O)C1CCN(c2nccc(-c3ccc4c(c3)OCCCO4)n2)CC1`, the Papp is 653 ×10⁻⁶ cm/s. As to `O=C1Nc2ccccc2/C1=C\c1ccc(O)c(F)c1`, the Papp came to 343 ×10⁻⁶ cm/s. In turn, `COc1cc2c(c(OC)c1OC)-c1ccc(OC)c(=O)cc1[C@@H](NC(C)=O)CC2` registered a Papp of 1.93 ×10⁻⁶ cm/s. As for `O=C(Nc1ccc(Oc2ccnc3[nH]ccc23)c(F)c1)c1cccn(-c2ccc(F)cc2)c1=O`, the Papp came out at 407 ×10⁻⁶ cm/s. For the molecule `Cc1ccc(S(=O)(=O)Nc2cc(C(=O)Nc3nc(-c4ccccc4)cs3)ccn2)cc1`, the Papp was determined as 259 ×10⁻⁶ cm/s. Consider `Cc1cc(C)nc(NC(=S)N2CCN(c3cccc(C(F)(F)F)c3)CC2)c1`, for which the Papp is 593 ×10⁻⁶ cm/s. `CCOc1ccc(C2C(C(=O)Nc3ccccc3OC)=C(C)Nc3c(C(=O)Nc4cccc(C)c4)cnn32)cc1` (stereo unspecified) registered a Papp of 871 ×10⁻⁶ cm/s. For `Cc1cccc(C(=O)N2CCc3cc(-c4nc(NC(=O)Cc5ccc6c(c5)OCO6)sc4C)ccc32)c1`, the Papp was 59 ×10⁻⁶ cm/s. Next, `COc1ccnc(NC(=S)N2CCN(c3ccc(Cl)c(Cl)c3)CC2)c1`: 601 ×10⁻⁶ cm/s; `CCc1cccc(NC(=O)c2cc(-c3ccc[nH]3)n[nH]2)c1`: 87.7 ×10⁻⁶ cm/s; `CN(C)c1cccc(-c2c3c(=O)n(-c4ccccc4Cl)[nH]c3cc(=O)n2C)c1`: 13.9 ×10⁻⁶ cm/s. On to `COCCNCc1ccc(-c2cc3nccc(Oc4ccc(NC(=S)NC(=O)Cc5ccc(F)cc5)cc4F)c3s2)nc1`, for which the Papp amounted to 361 ×10⁻⁶ cm/s.

In turn, `Brc1ccc(-c2csc(N3CCC(c4nn[nH]n4)CC3)n2)cc1` registered a Papp of 141 ×10⁻⁶ cm/s. As to `CC(=O)Nc1ccc(C(=O)Nc2ccc3c(c2)N(C2CCCC2)C(=O)c2ccccc2S3)cc1`, the Papp is 138 ×10⁻⁶ cm/s.

For the molecule `COc1cc(OC)c2c(=O)[nH]c(-c3cc(C)c(OCCO)c(C)c3)nc2c1`, the Papp was found to be 540 ×10⁻⁶ cm/s.

Regarding `COc1ccc(NC(=O)c2c(C)cccc2C)cc1[S+](=O)([O-])N1CCCCC1`, the Papp is 548 ×10⁻⁶ cm/s. Consider `O=C(c1ccccc1)N1CCN(c2nc(-c3ccc(Br)cc3)cs2)CC1`, for which the Papp worked out at 743 ×10⁻⁶ cm/s. For the molecule `O=c1cc(-c2ccc(O)c(O)c2)oc2cc(O)cc(O)c12`, the Papp stood at 120 ×10⁻⁶ cm/s. Next, `CC(C)c1ccc(OCc2nc3c(n2Cc2ccccc2)C(=O)N(CC2CCOCC2)CCN3)cc1`: above 1000 ×10⁻⁶ cm/s.

The molecule `COc1ccccc1CNC(=O)CCCn1nc(C)c2c(C)n(-c3ccc(C)cc3)nc2c1=O` yielded a Papp of 604 ×10⁻⁶ cm/s.

Consider `CN(C)c1cccc(-c2ncc(F)c(N3CCC(C(N)=O)CC3)n2)c1`, for which the Papp was determined as 599 ×10⁻⁶ cm/s. As to `Cc1cccc(-n2cnc3cc(C(=O)N4CCC(Br)CC4)ccc32)c1`, the Papp was above 1000 ×10⁻⁶ cm/s. The molecule `Cc1ccc(S(=O)(=O)N[C@@H](Cc2ccccc2)C(=O)CCl)cc1` gave an apparent permeability (Papp) of 323 ×10⁻⁶ cm/s. With `N#Cc1cccc(-c2nccc(-n3ccnc3)n2)c1`, the Papp came out at 492 ×10⁻⁶ cm/s.

The molecule `COC(=O)c1ccc2nc(NC3=NC(c4[nH]ncc4Cl)C4=C(CCCC4=O)N3)oc2c1` (stereo unspecified) yielded a Papp of 578 ×10⁻⁶ cm/s.

`O=C(NC1CCCc2c1cnn2-c1cccc(O)c1)c1ccccn1` (stereo unspecified) yielded a Papp of 836 ×10⁻⁶ cm/s. `CCOc1ccccc1N(CC(=O)N1CCOCC1)S(=O)(=O)c1ccc(SC)cc1` returned a Papp of 550 ×10⁻⁶ cm/s. To `O=C(C1CCN(c2nc(-c3ccc(Br)cc3)cs2)CC1)N1CCOCC1` belongs 236 ×10⁻⁶ cm/s. For `O=C(O)c1ccnc(-c2cc(C(=O)NCCc3ccccc3)ccn2)c1`, the Papp was below 1 ×10⁻⁶ cm/s. For `Cc1ccnc(NC(=S)N2CCN(c3ccc(N)cc3)CC2)c1`, the Papp amounted to 717 ×10⁻⁶ cm/s.

With `FC(F)(F)c1cccc(Sc2nc(-c3ccccc3)nnc2C(F)(F)F)c1`, the Papp stood at 17 ×10⁻⁶ cm/s. `O=C1c2ccccc2-n2c1nc1ccccc1c2=O` had a Papp of 715 ×10⁻⁶ cm/s.

The molecule `O=S(=O)(Nc1nccs1)c1ccc(NCc2cccc(Cl)c2O)cc1` gave a Papp of 18.4 ×10⁻⁶ cm/s.

The molecule `Cc1cccc(CN2CCN(c3ccccn3)CC2)c1` came in with a Papp above 1000 ×10⁻⁶ cm/s. Next, `COc1ccc(-n2nc(C3CCN([S+](=O)([O-])c4cccc(C(F)(F)F)c4)CC3)[nH]c2=O)cc1`: 242 ×10⁻⁶ cm/s; `COc1cccc(C(=O)NCCSc2c(-c3ccc(F)cc3)[nH]c3ccccc23)c1OC`: 37 ×10⁻⁶ cm/s. Next, `Cc1sc2c(c1C)C(c1ccc(Cl)cc1)=N[C@H](CC(=O)NCCCCNC(=O)COc1cccc3c1C(=O)N([C@H]1CCC(=O)NC1=O)C3=O)c1nnc(C)n1-2`: below 1 ×10⁻⁶ cm/s.

The molecule `CN(C)C(=O)c1ccc(-c2cc[nH]c(=O)c2N)cc1` showed a Papp of 12.1 ×10⁻⁶ cm/s. As to `Brc1ccc(-c2csc(N3CCOCC3)n2)cc1`, the Papp is below 1 ×10⁻⁶ cm/s. As for `Cc1ccc(NC(=O)c2cc(-c3ccc(C)o3)nc3ccccc23)nc1`, the Papp was above 1000 ×10⁻⁶ cm/s.

`COc1cc([C@@H]2c3cc4c(cc3[C@H](O)[C@H]3COC(=O)[C@H]23)OCO4)cc(OC)c1OC` came in with a Papp of 224 ×10⁻⁶ cm/s. Consider `CN(C(=O)CSc1nc2c(c(=O)[nH]1)CCCC2)c1ccccc1`, for which the Papp was 143 ×10⁻⁶ cm/s.

(Values after PubChem BioAssay AID1508612.)
